Experimental data: patent US10975069B2, “Sigma-2 receptor ligand drug conjugates as antitumor compounds, methods of synthesis and uses thereof” (priority 2014, dated 2021)

Experiment: Toxicity study (necropsy, CBC, clinical chemistry) in tumor bearing mice
Format: in vivo, C57BL/6 mice
Settings: mouse, in vivo
Method: Six adult female mice were submitted to necropsy. The strain designation of the mice was C57BL/6. […]
Animal studies were performed according to the animal studies protocol approved by Washington University Institutional Animal Care Facility. In vivo studies with mice were performed to compare the effects of SW V-49s, SV119. Erastin, a combination of SV119 with Erastin, and vehicle. […] C57BL/6 mice (6 weeks old. National Cancer Institute Laboratories) were injected in the right flank with 200 μL single cell suspension of KCKO cells in RPMI medium (25×10^4/10^5 cells per mouse). Mice were randomized into four groups (n=15). Treatment was started when the mean tumor diameter was ^˜5 mm. […] Erastin, equimolar mix of SV119 and Erastin. Tumors were measured every other day with a digital caliper. Several mice from different treatment groups were sent to the Division of Comparative Medicine in our institution for pathologic evaluation. Blood was collected for complete blood count (CBC) and biochemical analysis (AST, ALT, BUN, total bilirubin, and Cr). Organs were examined grossly and histologically.

With SW IV-134 the “differences in laboratory values (biochemical analysis) versus vehicle” value was “not statistically significant”.
